# Where two headings read alike, the source gives them in different places.
# Legend:
# [1] = molecular target: T1, F1F0-ATPase (Bos taurus, UniProt P13621); assay: Inhibition of F1F0-ATPase activity in synthesizing ATP; assay type: biochemical; conditions: inhibition of ATP synthesis by F1F0-ATPase; read-out: ATP Syn IC50
# T1 construct: from tissue
# [2] = system: Ramos cells; assay: Cytotoxicity in Ramos cells; assay type: cell-based; conditions: cytotoxicity in Ramos cells, read-out: Ramos Cell EC50
SMILES,IC50 [1] [µM],EC50 ([2]; Homo sapiens) [µM],EC50 [2] [µM]
CC(C)N/C(=N/C(=O)c1ccc(Cl)c(F)c1)Nc1cc(C(F)(F)F)n[nH]1 [Compound A-113],< 10,< 10,–
CC(C)(C)N/C(=N/C(=O)c1ccc(F)c(F)c1)Nc1cc(-c2cccc(C(F)(F)F)c2)[nH]n1 [Compound A-423],< 10,–,< 10
CC1(N/C(=N/C(=O)c2ccc(Cl)cc2)Nc2n[nH]c3ccccc23)CCC1 [Compound A-38],< 10,< 10,–
CCc1ccc(-c2cc(N/C(=N\C(=O)c3ccc(F)c(F)c3)NC(C)(C)C)[nH]n2)cc1 [Compound A-431],< 10,–,< 10
"O=C(/N=C(/NCC(O)CO)Nc1cc(C(F)(F)F)n[nH]1)c1ccc(F)cc1 (stereo not drawn) [Compound A-562, (Z)—N-(((2,3-Dihydroxypropyl)amino)((3-(trifluoromethyl)-1H-pyrazol-5-yl)amino)methylene)-4-fluorobenzamide]",> 10,> 10,–
COC(=O)c1cccc(C(=O)/N=C(\Nc2cc(-c3ccc(F)cc3)n[nH]2)NC(C)(C)C)c1 [Compound A-342],< 10,–,< 10
COC[C@H](C)N/C(=N/C(=O)c1ccc(OC)cc1)Nc1cc(C(F)(F)F)[nH]n1 [Compound A-536],< 10,–,< 10
Cc1ccc(-c2cc(N/C(=N\C(=O)c3ccc(F)c(F)c3)NC(C)(C)C)[nH]n2)cc1F [Compound A-433],< 10,–,< 10
CCCCN/C(=N/C(=O)c1ccc(Cl)c(F)c1)Nc1cc(-c2cc(F)cc(F)c2)n[nH]1 [Compound A-360],< 10,–,< 10
O=C(N=C(NCc1ccc(F)cc1Cl)Nc1cc(-c2ccc(F)cc2)n[nH]1)c1cccc(Cl)c1 [Compound A-452],< 10,< 10,–
O=C(N=C(Nc1cc(F)cc(Cl)c1)Nc1cc(-c2cc(F)cc(F)c2)[nH]n1)c1ccc(F)c(F)c1 [Compound A-419],< 10,< 10,–
COCC(C)NC(=NC(=O)c1ccc(C#N)cc1)Nc1cc(-c2ccc(F)cc2)n[nH]1 (stereo not drawn) [Compound A-528],< 10,> 10,–
Cc1cc(NC(=NC(=O)c2ccc(Cl)c(F)c2)NCCC(F)(F)F)[nH]n1 [Compound A-179],> 10,> 10,–
O=C(/N=C(/NCc1ccc(Cl)c(F)c1)Nc1cc(C(F)(F)F)[nH]n1)c1ccc(C(F)(F)F)cc1 [Compound A-20],< 10,< 10,–
CC(C)(C)NC(=NC(=O)c1ccc(C(F)(F)F)cc1)Nc1cc(-c2ccccc2)[nH]n1 [Compound A-153],< 10,< 10,–
O=C(/N=C(/NCc1cccc(C(F)(F)F)c1)Nc1cc(C(F)(F)F)[nH]n1)c1ccc(C(F)(F)F)cc1 [Compound A-2],< 10,< 10,–
CC(N/C(=N\C(=O)c1ccc(C(F)(F)F)cc1)Nc1cc(C(F)(F)F)n[nH]1)c1cccc(Cl)c1 (stereo not drawn) [Compound A-89],< 10,< 10,–
O=C(/N=C(/NCc1ccccc1C(F)(F)F)Nc1cc(C(F)(F)F)n[nH]1)c1ccc(F)c(F)c1 [Compound A-8],< 10,< 10,–
CC(C)(C)N/C(=N/C(=O)c1ccc(F)c(F)c1)Nc1cc(C(F)F)[nH]n1 [Compound A-62],< 10,< 10,–
O=C(/N=C(\Nc1cc(C(F)(F)F)n[nH]1)NC1CCCOC1)c1ccc(Cl)c(F)c1 (stereo not drawn) [Compound A-119],< 10,< 10,–
O=C(N=C(Nc1cc(-c2ccc(Cl)cc2)n[nH]1)NC1CCC1)c1ccc(Cl)c(F)c1 [Compound A-226],< 10,< 10,–
O=C(/N=C(/NCc1nccs1)Nc1cc(C(F)(F)F)[nH]n1)c1ccc(F)cc1 [Compound A-411],< 10,–,> 10
COC[C@H](C)N/C(=N/C(=O)c1ccc(C)c(F)c1)Nc1cc(C(F)(F)F)[nH]n1 [Compound A-535],< 10,–,< 10
CC(C)(C)CN/C(=N/C(=O)c1ccc(F)cc1)Nc1cc(-c2ccc(F)cc2)[nH]n1 [Compound A-514],< 10,–,< 10
Cc1ccc(CN/C(=N/C(=O)c2ccc(F)cc2)Nc2cc(C(F)(F)F)[nH]n2)o1 [Compound A-414],< 10,–,< 10
CC(C)N/C(=N/C(=O)c1ccc(F)c(F)c1)Nc1cc(C(F)(F)F)n[nH]1 [Compound A-98],< 10,< 10,–

SMILES,IC50 [1] [µM],EC50 ([2]; Homo sapiens) [µM],EC50 [2] [µM]
O=C(/N=C(\Nc1cc(-c2cc(F)cc(Cl)c2)n[nH]1)NC1CCC1)c1ccc(F)c(F)c1 [Compound A-284],< 10,–,< 10
C[C@H](N/C(=N\C(=O)c1ccc(Cl)cc1)Nc1cc(C(F)(F)F)n[nH]1)C1CCCCC1 [Compound A-109],< 10,< 10,–
CCOc1cccc(C(=O)/N=C(\Nc2cc(-c3ccc(F)cc3)[nH]n2)NC(C)(C)C)c1 [Compound A-402],< 10,–,< 10
COc1ccc(C(=O)/N=C(\Nc2cc(-c3ccc(F)cc3)n[nH]2)NC(C)(C)C)cn1 [Compound A-494],< 10,–,< 10
O=C(N=C(Nc1cc(-c2ccc(F)cc2)n[nH]1)NC1CCC1)c1ccc(F)c(F)c1 [Compound A-259],< 10,< 10,–
O=C(/N=C(/Nc1cc(F)cc(Cl)c1)Nc1cc(-c2ccc(F)cc2)n[nH]1)c1cccc(F)c1 [Compound A-458],< 10,–,< 10
COc1ccc(-c2cc(N/C(=N\C(=O)c3ccc(F)c(F)c3)NCc3ccc(F)cc3Cl)[nH]n2)cc1 [Compound A-476],< 10,–,> 10
N#Cc1cccc(C(=O)/N=C(\Nc2cc(-c3cc(F)cc(F)c3)n[nH]2)NC2CCCC2)c1 [Compound A-309],< 10,–,< 10
Cc1csc(CN/C(=N/C(=O)c2ccc(F)cc2)Nc2cc(C(F)(F)F)[nH]n2)n1 [Compound A-416],< 10,–,> 10
O=C(/N=C(/NCc1ccc(F)cc1Cl)Nc1cc(-c2ccc(F)cc2)n[nH]1)c1cccc(C(F)(F)F)c1 [Compound A-449],< 10,–,< 10
CCC(C)NC(=NC(=O)c1cccc(C#N)c1)Nc1cc(-c2cc(F)cc(F)c2)n[nH]1 (stereo not drawn) [Compound A-313],< 10,< 10,–
O=C(N=C(NCC1CCO1)Nc1cc(-c2ccc(F)cc2)n[nH]1)c1ccc(Cl)c(F)c1 (stereo not drawn) [Compound A-215],> 10,> 10,–
CCC(C)N/C(=N/C(=O)c1cccc(C#N)c1)Nc1cc(-c2ccc(Cl)cc2)n[nH]1 (stereo not drawn) [Compound A-306],< 10,–,< 10
CC(C)(C)NC(=NC(=O)c1cc(F)c(F)c(F)c1)Nc1cc(-c2ccc(F)cc2)n[nH]1 [Compound A-403],< 10,< 10,–
"CC1(C)Cn2nc(-c3ccc(F)cc3)cc2N/C(=N\C(=O)c2ccc(F)cc2)N1 [Compound A-568, (Z)-4-fluoro-N-(8-(4-fluorophenyl)-4,4-dimethyl-4,5-dihydro-1H-pyrazolo[1,5-a][1,3,5]triazepin-2(3H)-ylidene)benzamide]",< 10,< 10,–
CC(C)(C)N/C(=N/C(=O)c1ccc(C#N)cc1)Nc1cc(-c2ccc(F)cc2)[nH]n1 [Compound A-529],< 10,–,> 10
CC(C)(C)CN/C(=N/C(=O)c1ccc(Cl)cc1)Nc1cc(C(F)(F)F)n[nH]1 [Compound A-42],< 10,< 10,–
CC(C)N/C(=N/C(=O)c1ccc(F)cc1)Nc1cc(-c2cc(F)cc(F)c2)n[nH]1 [Compound A-245],< 10,–,< 10
O=C(/N=C(\Nc1cc(-c2ccc(F)cc2)n[nH]1)NC1CCCC1)c1ccc(F)c(F)c1 [Compound A-260],< 10,–,< 10
Cc1ccc(-c2cc(N/C(=N\C(=O)c3ccc(C(F)(F)F)cc3)NC(C)C)[nH]n2)cc1F [Compound A-328],< 10,–,< 10
CCOC(C)CN/C(=N/C(=O)c1ccc(F)c(F)c1)Nc1cc(-c2ccc(Cl)cc2)n[nH]1 (stereo not drawn) [Compound A-214],< 10,–,< 10
Cc1ccccc1CN/C(=N/C(=O)c1cc(F)c(F)c(F)c1)Nc1cc(-c2ccc(F)cc2)[nH]n1 [Compound A-397],< 10,–,< 10
Cc1ccc(-c2cc(N/C(=N\C(=O)c3ccc(F)c(F)c3)Nc3cc(F)cc(Cl)c3)[nH]n2)cc1 [Compound A-428],< 10,–,> 10
COCC(C)NC(=NC(=O)c1ccc(C(F)(F)F)cc1)Nc1cc(-c2ccc(Cl)cc2)n[nH]1 (stereo not drawn) [Compound A-238],< 10,< 10,–
Cc1ccc(-c2cc(NC(=NC(=O)c3ccc(Cl)c(F)c3)NCc3ccc(F)cc3Cl)[nH]n2)cc1 [Compound A-474],< 10,> 10,–

# From patent US9139532B2, “Pyrazolyl guanidine F1F0-atpase inhibitors and therapeutic uses thereof” (Lycera Corporation, priority 2010, dated 2015)
